Laboratory results published in paper PMC8694002 (RSC Advances, 2021).
Read-outs that look alike come from different tables or passages of the source.

How the values were obtained:
TCPTP (13–358) = target: T1, TCPTP (13–358) (Homo sapiens, UniProt P17706); assay: TCPTP inhibition assay with DiFMUP as substrate; format: biochemical; settings: read-out: IC50 TCPTP; means ± SD of three replications
T1 sequence (P17706 13-358): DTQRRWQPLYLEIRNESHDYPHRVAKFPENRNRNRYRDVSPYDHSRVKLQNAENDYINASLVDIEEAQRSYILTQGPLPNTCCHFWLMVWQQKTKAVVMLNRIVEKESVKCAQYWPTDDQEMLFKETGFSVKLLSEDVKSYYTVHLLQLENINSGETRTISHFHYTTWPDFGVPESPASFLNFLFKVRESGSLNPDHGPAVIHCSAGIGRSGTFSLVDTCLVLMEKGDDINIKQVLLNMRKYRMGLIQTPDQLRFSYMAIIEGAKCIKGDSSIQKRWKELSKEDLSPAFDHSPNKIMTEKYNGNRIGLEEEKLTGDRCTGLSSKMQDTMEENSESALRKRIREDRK

PTP1B (1–321) = target: T2, PTP1B (1–321) (Homo sapiens, UniProt P18031); assay: PTP1B inhibition assay with DiFMUP as substrate
T2 sequence (P18031 1-321): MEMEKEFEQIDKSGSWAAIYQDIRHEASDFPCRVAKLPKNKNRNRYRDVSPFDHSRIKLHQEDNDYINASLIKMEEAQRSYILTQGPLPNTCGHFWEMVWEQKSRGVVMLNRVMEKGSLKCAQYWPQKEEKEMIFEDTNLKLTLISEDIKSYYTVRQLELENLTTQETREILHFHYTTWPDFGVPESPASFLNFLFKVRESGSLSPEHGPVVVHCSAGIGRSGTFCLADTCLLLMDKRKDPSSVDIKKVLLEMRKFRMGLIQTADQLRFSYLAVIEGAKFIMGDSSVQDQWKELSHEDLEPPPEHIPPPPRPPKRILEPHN

O=S(=O)(O)c1ccc2cc(N=Nc3cc(S(=O)(=O)O)c4cccnc4c3O)ccc2c1 [NSC-87877]
IC50 (TCPTP (13–358)): 71.9 ± 3.87 µM | IC50 (PTP1B (1–321); PTP1B, Table 3, means ± SD of three replications): 26.2 ± 8.58 µM | IC50 (PTP1B (1–321); read-out: IC50 PTP1B, means ± SD of three replications): 26.2 ± 8.58 µM
